# Like-named read-outs stand apart in the source and are kept apart here.
# Key:
# [1] = tested on: HCT116 MTAP-deleted cell lines; experiment: Cell viability assay (CellTiter-Glo, 7 days), HCT116 MTAP-deleted; assay type: cell-based; conditions: Homo sapiens, HCT-116, HCT116 MTAP-deleted, class symbols, read-out: CC50
# Method in brief: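 First, compounds are serially diluted in DMSO and dispensed into plates, which are frozen until seeding. Next, cells are added and incubated 7 days at 37 °C, 5% CO2, 90% humidity. Finally, CellTiter-Glo reagent is added and luminescence is measured to derive CC50.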
# [2] = tested on: Symmetric Di-methyl Arginine (SDMA) signal (PRMT5 inhibition) in HCT116 MTAP-deleted cells; experiment: Symmetric di-methyl arginine image-based high content screen assay (SDMA assay), HCT116 MTAP-deleted; assay type: cell-based; conditions: for EC50: Homo sapiens, HCT-116, HCT116 MTAP-deleted, class symbols
# Method in brief: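 Read-out is imaging of per-cell mean SDMA immunofluorescence (Alexa 488), with cells segmented by DAPI. Cells, MTAP-deleted or wild-type HCT116, were exposed to compound for 3 days at 37 °C before fixation. EC50 derived by 4-parameter non-linear logistic regression.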
# [3] = HCT116 WT vs HCT116 MTAP-deleted
# [4] = HCT116 WT versus HCT116 MTAP-deleted
SMILES,"EC50 selectivity [2, 3]",EC50 [2] [nM],"EC50 selectivity [2, 4]",CC50 ([1]; cell viability assay) [nM],CC50 ([1]; cell viability) [nM]
"Nc1nc2ccc(C(=O)N3C[C@@H](F)C[C@@H]4Oc5cc(OC(F)(F)F)ccc5[C@@H]43)cc2n2cncc12 [Ff-667, (4-aminoimidazo[1,5-a]quinoxalin-8-yl)((3S,4aS,9bS)-3-fluoro-7-(trifluoromethoxy)-3,4,4a,9b-tetrahydrobenzofuro[3,2-b]pyridin-1(2H)-yl)methanone]",115,≤ 1,,< 100,
"Cc1ncn2c1c(N)nc1ccc(C(=O)N(Cc3ccc(C(F)(F)F)cc3F)N(C)C(=O)C3CC3)cc12 [Fa-4, 4-amino-N′-(cyclopropanecarbonyl)-N-(2-fluoro-4-(trifluoromethyl)benzyl)-N′,3-dimethylimidazo[1,5-a]quinoxaline-8-carbohydrazide]",,1 to 5,74,,< 100
"Nc1nc2ccc(C(=O)N(Cc3ccc(C(F)(F)F)cn3)N3CCOCC3)cc2n2cncc12 [Fb-2, 4-amino-N-morpholino-N-((5-(trifluoromethyl)pyridin-2-yl)methyl)imidazo[1,5-a]quinoxaline-8-carboxamide]",,1 to 5,48,,< 100
"CC(=O)N(C)N(Cc1ccc(-c2cnn(C(F)(F)F)c2)cc1F)C(=O)c1ccc2nc(N)c3c(C)ncn3c2c1 [Fa-5, N′-acetyl-4-amino-N-(2-fluoro-4-(1-(trifluoromethyl)-1H-pyrazol-4-yl)benzyl)-N′,3-dimethylimidazo[1,5-a]quinoxaline-8-carbohydrazide]",,1 to 5,101,,< 100
"CN(Cc1cccc2ccoc12)C(=O)c1ccc2nc(N)c3cncn3c2c1 [Ff-5, 4-amino-N-(benzofuran-7-ylmethyl)-N-methylimidazo[1,5-a]quinoxaline-8-carboxamide]",,> 5,334,,> 1000
"Cc1ncn2c(N)nc3ccc(C(=O)N(C)[C@@H]4COc5cc(C(F)(F)F)ccc54)cc3c12 [Fg-11, (S)-5-amino-N,1-dimethyl-N-(6-(trifluoromethyl)-2,3-dihydrobenzofuran-3-yl)imidazo[1,5-c]quinazoline-9-carboxamide]",225,> 5,,100 to 1000,
"CC(=O)N(C)N(Cc1ccc(OC(F)F)cc1F)C(=O)c1ccc2nc(N)c3cnc(C)n3c2c1 [Fc-2, N′-acetyl-4-amino-N-(4-(difluoromethoxy)-2-fluorobenzyl)-N′,1-dimethylimidazo[1,5-a]quinoxaline-8-carbohydrazide]",,1 to 5,431,,100 to 1000
"Nc1nc2ccc(C(=O)N3C[C@H](F)C[C@@H]4Oc5cc(C(F)(F)F)ccc5[C@@H]43)cc2n2cncc12 (single isomer, unassigned) [Ff-681]",313,≤ 1,,< 100,
"Nc1nc2ccc(C(=O)N(Cc3ccc(C(F)(F)F)cc3F)C3COC3)cc2n2cncc12 [Ff-410, 4-amino-N-[[2-fluoro-4-(trifluoromethyl)phenyl]methyl]-N-(oxetan-3-yl)imidazo[1,5-a]quinoxaline-8-carboxamide]",453,> 5,,100 to 1000,
"[2H]C1([2H])CC[C@@H]2Oc3cc(OC(F)(F)F)ccc3[C@@H]2N1C(=O)c1cc2c(cn1)nc(N)c1cncn12 [Fg-59, (4-aminoimidazo[1,5-a]pyrido[3,4-e]pyrazin-8-yl)((4aS,9bS)-7-(trifluoromethoxy)-3,4,4a,9b-tetrahydrobenzofuro[3,2-b]pyridin-1(2H)-yl-2,2-d2)methanone]",208,≤ 1,,< 100,
"Nc1nc2ccc(C(=O)N3CCC4(CC4)[C@@H]4Oc5cc(OC(F)(F)F)ccc5[C@@H]43)cc2n2cncc12 [Ff-615, (4-aminoimidazo[1,5-a]quinoxalin-8-yl)((4aS,9bS)-7-(trifluoromethoxy)-2,3,4a,9b-tetrahydro-1H-spiro[benzofuro[3,2-b]pyridine-4,1′-cyclopropan]-1-yl)methanone]",158,≤ 1,,< 100,
"C[C@H]1CN(C(=O)c2cc3c(cc2Cl)nc(N)c2cncn23)[C@@H](c2ccc(C(F)(F)F)cn2)CO1 [Ff-138, (4-amino-7-chloroimidazo[1,5-a]quinoxalin-8-yl)((2S,5S)-2-methyl-5-(5-(trifluoromethyl)pyridin-2-yl)morpholino)methanone]",,≤ 1,20,,< 100
"C[C@H](c1ncccn1)N(Cc1ccc(C(F)(F)F)cn1)C(=O)c1ccc2nc(N)n3cncc3c2c1 [Fg-1, (R)-5-amino-N-(1-(pyrimidin-2-yl)ethyl)-N-((5-(trifluoromethyl)pyridin-2-yl)methyl)imidazo[1,5-c]quinazoline-9-carboxamide]",50,1 to 5,,100 to 1000,

# The next lines start with results.
"EC50 selectivity [2, 3]",EC50 [2] [nM],"EC50 selectivity [2, 4]",SMILES,CC50 ([1]; cell viability assay) [nM],CC50 ([1]; cell viability) [nM]
109,1 to 5,,"Cc1cn(-c2ccc3c(c2)OC[C@H]3N(C)C(=O)c2cc3c(cc2F)nc(N)c2cncn23)cn1 [Ff-544, (S)-4-amino-7-fluoro-N-methyl-N-(6-(4-methyl-1H-imidazol-1-yl)-2,3-dihydrobenzofuran-3-yl)imidazo[1,5-a]quinoxaline-8-carboxamide]",< 100,
,1 to 5,256,"Nc1nc2cc(F)c(C(=O)N3CCO[C@@H]4Cc5cc(Br)ccc5[C@@H]43)cc2n2cncc12 (racemic) [Ff-28, Racemic(4-amino-7-fluoroimidazo[1,5-a]quinoxalin-8-yl)((4aS,9aR)-7-bromo-2,3,9,9a-tetrahydroindeno[2,1-b][1,4]oxazin-4(4aH)-yl)methanone]",,< 100
496,1 to 5,,"Cc1ncn2c1c(N)nc1ccc(C(=O)N(C)[C@@H]3COc4nc(C(F)(F)F)ccc43)cc12 [Fg-7, (S)-4-amino-N,3-dimethyl-N-(6-(trifluoromethyl)-2,3-dihydrofuro[2,3-b]pyridin-3-yl)imidazo[1,5-a]quinoxaline-8-carboxamide]",100 to 1000,
,1 to 5,44,"Nc1nc2cc(F)c(C(=O)N3CCO[C@@H]4Cc5cc(C(F)F)ccc5[C@@H]43)cc2n2cncc12 [Ff-167, (4-amino-7-fluoroimidazo[1,5-a]quinoxalin-8-yl)((4aS,9aR)-7-(difluoromethyl)-2,3,9,9a-tetrahydroindeno[2,1-b][1,4]oxazin-4(4aH)-yl)methanone]",,< 100
115,≤ 1,,"Nc1nc2cc(F)c(C(=O)N3CCC[C@@H]4Oc5c(ccc(C(F)(F)F)c5F)[C@@H]43)cc2n2cncc12 [Ff-501, (4-amino-7-fluoroimidazo[1,5-a]quinoxalin-8-yl)((4aS,9bS)-6-fluoro-7-(trifluoromethyl)-3,4,4a,9b-tetrahydrobenzofuro[3,2-b]pyridin-1(2H)-yl)methanone]",< 100,
,≤ 1,37,"Nc1nc2cc(F)c(C(=O)N(Cc3ccc(C(F)(F)F)cn3)C34CC(C3)C4)cc2n2cncc12 [Ff-1, 4-amino-N-(bicyclo[1.1.1]pentan-1-yl)-7-fluoro-N-((5-(trifluoromethyl)pyridin-2-yl)methyl)imidazo[1,5-a]quinoxaline-8-carboxamide]",,< 100
70,≤ 1,,"C#Cc1cc2nc(N)c3cncn3c2cc1C(=O)N(C)[C@@H]1COc2cc(C(F)(F)F)ccc21 [Fg-49, (S)-4-amino-7-ethynyl-N-methyl-N-(6-(trifluoromethyl)-2,3-dihydrobenzofuran-3-yl)imidazo[1,5-a]quinoxaline-8-carboxamide]",< 100,
207,≤ 1,,"Cc1ncn2c1c(N)nc1ccc(C(=O)N(C)[C@@H]3COCc4cc(Br)ccc43)cc12 [Fg-13, (S)-4-amino-N-(7-bromoisochroman-4-yl)-N,3-dimethylimidazo[1,5-a]quinoxaline-8-carboxamide]",< 100,
275,1 to 5,,"Cc1nc(C)n2c1c(N)nc1ccc(C(=O)N(C)[C@@H]3COc4cc(C(F)(F)F)ccc43)cc12 [Fg-18, (S)-4-amino-N,1,3-trimethyl-N-(6-(trifluoromethyl)-2,3-dihydrobenzofuran-3-yl)imidazo[1,5-a]quinoxaline-8-carboxamide]",100 to 1000,
47,≤ 1,,"Nc1nc2cc(Br)c(C(=O)N3CCC[C@@H]4Oc5cc(C(F)(F)F)ccc5[C@@H]43)cc2n2cncc12 [Fg-50, (4-amino-7-bromoimidazo[1,5-a]quinoxalin-8-yl)((4aS,9bS)-7-(trifluoromethyl)-3,4,4a,9b-tetrahydrobenzofuro[3,2-b]pyridin-1(2H)-yl)methanone]",< 100,
,1 to 5,346,"CN(Cc1ccc(Cl)cc1C#N)C(=O)c1cc2c(cc1F)nc(N)c1cncn12 [Ff-32, 4-amino-N-(4-chloro-2-cyanobenzyl)-7-fluoro-N-methylimidazo[1,5-a]quinoxaline-8-carboxamide]",,100 to 1000
,> 5,129,"Cc1ncc2c(N)nc3ccc(C(=O)N(C)[C@@H]4COc5cc(C#CC6(O)CC6)ccc54)cc3n12 [Ff-19, (S)-4-amino-N-(6-((1-hydroxycyclopropyl)ethynyl)-2,3-dihydrobenzofuran-3-yl)-N,1-dimethylimidazo[1,5-a]quinoxaline-8-carboxamide]",,100 to 1000

# Reference: US12448388B2, “PRMT5 inhibitors and uses thereof” (Gilead Sciences, Inc., priority 2023, dated 2025)
